This passage reports Ki results from US20110021565A1, “PIPERIDINE DERIVATIVES AS NK3 ANTAGONISTS” (priority 2007, published 2011).

Like-named read-outs stand apart in the source and are kept apart here.

The target of the test is T1, recombinant human NK3 receptor (Homo sapiens, UniProt P29371).
T1 construct: expressed in transfected cells; host or cells: HEK293 cells, transient expression; membrane preparation
T1 sequence (P29371 1-465): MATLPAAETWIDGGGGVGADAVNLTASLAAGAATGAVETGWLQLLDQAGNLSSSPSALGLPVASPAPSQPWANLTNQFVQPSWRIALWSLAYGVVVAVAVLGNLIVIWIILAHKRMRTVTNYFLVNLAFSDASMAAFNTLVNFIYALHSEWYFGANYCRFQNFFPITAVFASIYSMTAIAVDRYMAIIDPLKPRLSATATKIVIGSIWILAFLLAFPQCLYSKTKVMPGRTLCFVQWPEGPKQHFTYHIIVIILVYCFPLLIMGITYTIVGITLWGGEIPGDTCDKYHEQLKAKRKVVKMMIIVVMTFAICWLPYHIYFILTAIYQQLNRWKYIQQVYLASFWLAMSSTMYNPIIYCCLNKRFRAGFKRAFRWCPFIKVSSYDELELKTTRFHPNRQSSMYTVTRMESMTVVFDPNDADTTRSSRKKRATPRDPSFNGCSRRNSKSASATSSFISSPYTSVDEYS
In words: [3H]SR142801 competition binding assay. A digest of the protocol: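 Membranes from HEK293 cells transiently expressing the receptor (5 μg protein/well) incubated 75 min at RT with [3H]SR142801 at its KD and 10 compound concentrations (0.0003-10 μM), in pH 7.4 Tris buffer with MnCl2, phosphoramidon and BSA. Nonspecific binding defined with 10 μM SB222200; bound radioactivity counted after filtration. Ki from IC50 via Cheng-Prusoff; duplicates.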

Where [1] appears, read: [3H]SR142801, membranes of HEK293 cells transiently expressing recombinant human NK3 receptor, read-out: hNK3 Ki.
Setting [2] is: representative compounds, [3H]SR142801, HEK293 membranes, human NK3 receptor, read-out: Ki NK3 h.

With `CC[C@@H](NC(=O)C(C)(CCN1CCC(N(CC)C(C)=O)CC1)c1ccc(Cl)c(Cl)c1)c1ccccc1` (stereo partly drawn) [Example 169, 4-[4-(Acetyl-ethyl-amino)-piperidin-1-yl]-2-(3,4-dichloro-phenyl)-2-methyl-N-((R)-1-phenyl-propyl)-butyramide], under setting [1], the Ki (usually a dissociation constant, usually derived from enzyme kinetics or from competition with a known ligand) came to 57.6 nM.
The same measure, in the same setting: the value for `CN(Cc1ccc(Cl)cc1)C(=O)C(CCN1CCC(N2CCCC2=O)CC1)c1ccc(Cl)cc1Cl` (centres unmarked) [Example 112, N-(4-Chloro-benzyl)-2-(2,4-dichloro-phenyl)-N-methyl-4-[4-(2-oxo-pyrrolidin-1-yl)-piperidin-1-yl]-butyramide] was 128 nM; that for `COc1cc(CN(C)C(=O)C(C)(CCN2CCC(NS(C)(=O)=O)CC2)c2ccc(Cl)c(Cl)c2)ccc1OC(F)F` (centres unmarked) [Example 5, 2-(3,4-Dichloro-phenyl)-N-(4-difluoromethoxy-3-methoxy-benzyl)-4-(4-methanesulfonyl-amino-piperidin-1-yl)-2,N-dimethyl-butyramide] was 272 nM.
Take `CC[C@H](NC(=O)C(C)(CCN1CCC(N2CCCC2=O)CC1)c1ccc(Cl)c(Cl)c1)c1ccccc1` (stereo partly drawn) [Example 127, 2-(3,4-Dichloro-phenyl)-2-methyl-4-[4-(2-oxo-pyrrolidin-1-yl)-piperidin-1-yl]-N-((S)-1-phenyl-propyl)-butyramide]: the inhibition constant Ki by setting is: under setting [1], 5.2 nM; under setting [2], 5.2 nM.
`CC(CCN1CCC(NS(C)(=O)=O)CC1)(C(=O)NCc1cc(F)ccc1C(F)(F)F)c1ccc(Cl)c(Cl)c1` (centres unmarked) [Example 13, 2-(3,4-Dichloro-phenyl)-N-(5-fluoro-2-trifluoromethyl-benzyl)-4-(4-methanesulfonyl-amino-piperidin-1-yl)-2-methyl-butyramide]: under setting [1], the Ki was 580 nM.
The same measure, in the same setting: with `CC(=O)NC1CCN(CCC(C)(C(=O)N[C@@H](CO)c2ccc(Cl)cc2)c2ccc(Cl)c(Cl)c2)CC1` (single isomer, unassigned; diastereoisomer 1) [Example 156, 4-(4-Acetylamino-piperidin-1-yl)-N-[1-(4-chloro-phenyl)-2-hydroxy-ethyl]-2-(3,4-dichloro-phenyl)-2-methyl-butyramide (diastereoisomer 1)] the figure was 50.5 nM.
As for `CC(=O)N(C)C1CCN(CCC(C)(C(=O)NCc2ccc(Cl)c(Cl)c2)c2ccc(Cl)c(Cl)c2)CC1` (centres unmarked) [Example 101, 4-[4-(Acetyl-methyl-amino)-piperidin-1-yl]-N-(3,4-dichloro-benzyl)-2-(3,4-dichloro-phenyl)-2-methyl-butyramide], the Ki is, setting by setting: under setting [1], 6.8 nM; under setting [2], 6.8 nM.
On to `CC[C@@H](NC(=O)C(C)(CCN1CCC(N2CCCC2=O)CC1)c1ccc(Cl)c(Cl)c1)c1ccccc1` (stereo partly drawn) [Example 128, 2-(3,4-Dichloro-phenyl)-2-methyl-4-[4-(2-oxo-pyrrolidin-1-yl)-piperidin-1-yl]-N-((R)-1-phenyl-propyl)-butyramide], for which the Ki under setting [1] worked out at 90.2 nM.
Regarding `CC(=O)N(C)C1CCN(CCC(C)(C(=O)N[C@H](CO)c2ccc(F)cc2)c2ccc(Cl)c(Cl)c2)CC1` (single isomer, unassigned; diastereoisomer 2) [Example 139, 4-[4-(Acetyl-methyl-amino)-piperidin-1-yl]-2-(3,4-dichloro-phenyl)-N-[1-(4-fluoro-phenyl)-2-hydroxy-ethyl]-2-methyl-butyramide (diastereoisomer 2)], under setting [1], the inhibition constant Ki was 141 nM.
Regarding `CC(=O)N(C)C1CCN(CCC(C)(C(=O)N(C)Cc2ccc(Cl)cc2)c2ccc(Cl)c(Cl)c2)CC1` (centres unmarked) [Example 102, 4-[4-(Acetyl-methyl-amino)-piperidin-1-yl]-N-(4-chloro-benzyl)-2-(3,4-dichloro-phenyl)-2,N-dimethyl-butyramide], the Ki stood at 5.1 nM under setting [1] and 5.1 nM under setting [2].
Consider `CC(CCN1CCC(N2CCCC2=O)CC1)(C(=O)N[C@@H](CO)c1ccc(F)cc1)c1ccc(Cl)c(Cl)c1` (single isomer, unassigned) [Example 129, 2-(3,4-Dichloro-phenyl)-N-[(R)-1-(4-fluoro-phenyl)-2-hydroxy-ethyl]-2-(R or S) methyl-4-[4-(2-oxo-pyrrolidin-1-yl)-piperidin-1-yl]-butyramide], for which the Ki is, setting by setting: under setting [1], 8.2 nM; under setting [2], 8.2 nM.
On to `CN(Cc1ccc(C(F)(F)F)c(F)c1)C(=O)C(CCN1CCC(NS(C)(=O)=O)CC1)c1ccc(Cl)c(Cl)c1` (centres unmarked) [Example 32, 2-(3,4-Dichloro-phenyl)-N-(3-fluoro-4-trifluoromethyl-benzyl)-4-(4-methanesulfonyl-amino-piperidin-1-yl)-N-methyl-butyramide], for which the inhibitory constant (Ki) under setting [1] was 61.7 nM.
Same read-out and setting: the value for `CC[C@@H](NC(=O)C(C)(CCN1CCC(N(CCOC)C(C)=O)CC1)c1ccc(Cl)c(Cl)c1)c1ccccc1` (stereo partly drawn) [Example 153, 4-{4-[Acetyl-(2-methoxy-ethyl)-amino]-piperidin-1-yl}-2-(3,4-dichloro-phenyl)-2-methyl-N-((R)-1-phenyl-propyl)-butyramide] was 60.9 nM.
On the same count and under the same terms, with `COc1cccc(CN(C)C(=O)C(C)(CCN2CCC(NS(C)(=O)=O)CC2)c2ccc(Cl)c(Cl)c2)c1` (centres unmarked) [Example 17, 2-(3,4-Dichloro-phenyl)-4-(4-methanesulfonyl-amino-piperidin-1-yl)-N-(3-methoxy-benzyl)-2,N-dimethyl-butyramide] the figure was 213 nM.
With `CC(CCN1CCC(N2CCCC2=O)CC1)(C(=O)NCc1ccc(F)c(C(F)(F)F)c1)c1ccc(Cl)c(Cl)c1` (centres unmarked) [Example 131, 2-(3,4-Dichloro-phenyl)-N-(4-fluoro-3-trifluoromethyl-benzyl)-2-methyl-4-[4-(2-oxo-pyrrolidin-1-yl)-piperidin-1-yl]-butyramide], the inhibition constant Ki under setting [1] is 3.4 nM and the Ki under setting [2] was determined as 3.4 nM.
Consider `CCCN(C(C)=O)C1CCN(CCC(C)(C(=O)N[C@@H](CC)c2ccccc2)c2ccc(Cl)c(Cl)c2)CC1` (stereo partly drawn) [Example 164, 4-[4-(Acetyl-propyl-amino)-piperidin-1-yl]-2-(3,4-dichloro-phenyl)-2-methyl-N-((S)-1-phenyl-propyl)-butyramide], for which the Ki is 0.8 nM under setting [1] and 0.8 nM under setting [2].
Take `CC(=O)N(C)C1CCN(CCC(C)(C(=O)NCc2ccc(C(F)(F)F)c(F)c2)c2ccc(Cl)c(Cl)c2)CC1` (centres unmarked) [Example 99, 4-[4-(Acetyl-methyl-amino)-piperidin-1-yl]-2-(3,4-dichloro-phenyl)-N-(3-fluoro-4-trifluoromethyl-benzyl)-2-methyl-butyramide]: the Ki reads like this: under setting [1], 5.8 nM; under setting [2], 5.8 nM.
As to `CC[C@H](NC(=O)C(C)(CCN1CCC(NC(C)=O)CC1)c1ccc(Cl)c(Cl)c1)c1ccccc1` (stereo partly drawn) [Example 161, 4-(4-Acetylamino-piperidin-1-yl)-2-(3,4-dichloro-phenyl)-2-methyl-N-((S)-1-phenyl-propyl)-butyramide], the inhibitory constant (Ki) under setting [1] is 44.2 nM.
Same read-out and setting: with `CC(=O)N(C)C1CCN(CCC(C)(C(=O)N[C@H](CO)c2ccc(Cl)c(Cl)c2)c2ccc(Cl)c(Cl)c2)CC1` (single isomer, unassigned; diastereoisomer 2) [Example 110, 4-[4-(Acetyl-methyl-amino)-piperidin-1-yl]-2-(3,4-dichloro-phenyl)-N-[1-(3,4-dichloro-phenyl)-2-hydroxy-ethyl]-2-methyl-butyramide; diastereoisomer 2] the figure was 110 nM.
